Results reported in patent US20230322779A1 (priority 2020, published 2023).
Like-named read-outs stand apart in the source and are kept apart here.

Tests used:
Calu-3 cells = experiment: Cell viability by nucleus counting in the Calu-3 dose-response assay; conditions: 0.0025 to 50 μM
in vitro = conditions: human, A549-hACE2 cells, uninfected
[1] = test system: SARS-CoV-2 (βCoV/KOR/KCDC03/2020); experiment: Dose-response curve analysis by immunofluorescence, anti-SARS-CoV-2 activity in Calu-3 cells; type: cell-based
[2] = test system: SARS-CoV-2 nLUC reporter virus; experiment: microbe, parasite or virus in culture; type: cell-based; conditions: for antiviral activity against SARS-CoV-2 reporter virus in A549-hACE2 cells: 10 to 0.002 μM
SARS-CoV-2 B.1.1.7 = experiment: SARS-CoV-2 in primary human bronchial cells at air liquid interface (HAEC-ALI), vRNA of apical wash by RT-qPCR; type: cell-based
[3] = Severe acute respiratory syndrome coronavirus 2, 48 h

Structure (SMILES) | toxicity in Calu-3 cells (Calu-3 cells) | CC50 at 48 h (in vitro) [nM] | antiviral activity against SARS-CoV-2 in Calu-3 cells [1] | antiviral activity against SARS-CoV-2 reporter virus in A549-hACE2 cells [2] | IC50 [2, 3] [nM] | inhibition of vRNA in apical wash fluid (SARS-CoV-2 B.1.1.7; 0.37 μM and lower, HAEC-ALI) | inhibition of vRNA in apical wash fluid (SARS-CoV-2 B.1.1.7; 1.1 μM, day 9, HAEC-ALI) | inhibition of vRNA in apical wash fluid (SARS-CoV-2 B.1.1.7; 3 μM, day 4-11, HAEC-ALI) | inhibition of vRNA in apical wash fluid (SARS-CoV-2 B.1.1.7; 10 μM, all timepoints (day 2-11), HAEC-ALI) | antiviral against SARS-CoV-2 (overall, HAEC-ALI) (SARS-CoV-2 B.1.1.7; primary human bronchial cells, air liquid interface) | IC50 [2] [nM] | inhibition of vRNA in apical wash fluid (SARS-CoV-2 B.1.1.7; 3 μM, all timepoints (day 2-11), HAEC-ALI)
FC(F)(F)c1nc(C(F)(F)F)c2ccc3nc(-c4nnco4)cn3c2n1 [Example 9, 2-(2,4-bis(trifluoromethyl)imidazo[1′2′:1,6]pyrido[2,3-d]pyrimidin-8-yl)-1,3,4-oxadiazole] | Neither compound showed toxicity | > 10000 | activity in the μM range | has antiviral activity against SARS-CoV-2 reporter virus when used in the μM range | > 1000 | – | – | – | – | – | – | –
FC(F)(F)c1cc(C(F)(F)F)c2ccc3nc(-c4nnco4)cn3c2n1 [Example 1, 2-[2,4-bis(trifluoromethyl)imidazo[1,2-a]1,8-naphthyridin-8-yl]-1,3,4-oxadiazole] | Neither compound showed toxicity | > 10000 | activity in the μM range | has antiviral activity against SARS-CoV-2 reporter virus when used in the μM range | > 1000 | No inhibition was observed | statistically significant inhibition | statistically significant inhibition | statistically significant inhibition | antiviral against SARS-CoV-2 when used in the μM range | 1710 | –
N#C[C@@]1(c2ccc3c(N)ncnn23)O[C@H](CO)[C@@H](O)[C@H]1O [GS-441524, reference compound] | – | – | – | – | – | – | – | – | – | – | – | statistically significant inhibition
